From paper PMC8667942 (Journal of Enzyme Inhibition and Medicinal Chemistry, 2021)

Experiments:
[1] = target: T1, CYP2C19 (Homo sapiens, UniProt P33261); test: Direct CYP inhibition assay, pooled human liver microsomes, LC-MS/MS; format: in vitro ADME; settings: pooled HLMs, up to 50 μM, S-mephenytoin substrate
T1 construct: from tissue; host or cells: pooled human liver microsomes
Protocol: Reactions were incubated in eight-well strips placed in an 8 × 12 racks (1.2 ml; VWR, Emeryville, CA). The incubation mixtures (final volume, 200 μL) contained 0.2 mg/mL HLMs, 0.1 M phosphate buffer (pH 7.4), 1 mM NADPH, and various CYP isoform-specific substrate cocktail sets (A set: phenacetin, coumarin, amodiaquine, S-mephenytoin, dextromethorphan, and midazolam; B set: bupropion, tolbutamide, chlorzoxazone, and testosterone). […] Substrates were dissolved and serially diluted with acetonitrile to the required concentration in all experiments. […] The reactions were incubated at 37 °C in a shaking water bath. The reactions were terminated by placing the incubation tubes on ice, adding 200 μL of cold acetonitrile containing carbamazepine (100 nM) and 4-methylumbelliferone (500 nM) as an internal standard after 10 min, and agitating with a vortex mixer before centrifugation. The samples for each enzyme assay were centrifuged at 3,000 × g for 20 min at 4 °C, and supernatants of the individual reaction samples and pooled cocktail incubation samples (A set: B set, 1:1) were analysed using LC-MS/MS.
Sample injection volume was 10 μL, and separation was performed on an Atlantis™ dC18 column (2.1 × 50 mm i.d., 3 μm; Waters, Milford, MA, USA) and Luna™5u C18 column (2.0 × 30 mm i.d.; Phenomenex, Torrance, CA, USA) with a SecurityGuard™ C18 guard column (2.0 × 4.0 mm i.d.; Phenomenex, Torrance, CA, USA) maintained at 30 °C. The column was pre-equilibrated in 100% v/v solvent A (deionized water containing 0.1% v/v formic acid)/0% v/v solvent B (acetonitrile containing 0.1% v/v formic acid) at a flow rate of 0.4 ml/min. […] Quadrupoles Q1 and Q3 were set on unit resolution. The samples were analysed via multiple reaction monitoring (MRM) and enhanced product ion (EPI) scan mode. The turbo ion spray interface was operated in the positive ion mode at 5,500 V. The operating conditions were determined as follows: ion source temperature, 600 °C; nebulising gas flow, 50 L/min; auxiliary gas flow, 4.0 L/min; curtain gas flow, 20 L/min; collision gas (nitrogen) pressure 3.6 × 10^−5 Torr. Nitrogen gas was used for CUR, CAD, and NEB. The MRM transitions, collision energies and retention time were determined for each metabolite. The samples were analysed via MRM as described in our previous study. The scan dwell time was set at 0.08 s for every channel. Data acquisition and analysis was performed using the Analyst™ software (version 1.5.2; Applied Biosystems, Foster City, CA, USA).

[2] = target: purified CYP3A4 (Homo sapiens, UniProt P08684); test: Spectral binding titration of purified CYP3A4; settings: Type I or Type II spectral change
purified CYP3A4, sequence (P08684 whole entry): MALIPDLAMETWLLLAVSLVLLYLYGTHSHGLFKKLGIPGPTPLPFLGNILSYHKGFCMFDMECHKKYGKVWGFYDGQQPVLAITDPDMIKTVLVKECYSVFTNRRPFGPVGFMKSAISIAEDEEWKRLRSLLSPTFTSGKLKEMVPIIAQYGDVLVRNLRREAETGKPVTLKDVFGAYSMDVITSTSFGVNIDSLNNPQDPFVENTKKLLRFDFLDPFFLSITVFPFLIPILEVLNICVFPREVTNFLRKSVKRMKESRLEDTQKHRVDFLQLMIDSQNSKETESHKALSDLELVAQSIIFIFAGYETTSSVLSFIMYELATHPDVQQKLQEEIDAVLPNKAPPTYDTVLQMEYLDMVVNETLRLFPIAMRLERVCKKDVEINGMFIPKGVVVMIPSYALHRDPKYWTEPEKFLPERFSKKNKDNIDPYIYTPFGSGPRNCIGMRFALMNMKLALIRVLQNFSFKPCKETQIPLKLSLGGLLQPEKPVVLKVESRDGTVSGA
Protocol: Purified CYP3A4 enzymes were diluted to 1 µM in 100 mM potassium phosphate buffer (pH 7.4) and then divided into two glass cuvettes. […] The binding titration was analysed using GraphPad Prism software (GraphPad, Inc., La Jolla, CA, USA).

[3] = target: T2, human IP6K2 (Homo sapiens, UniProt Q9UHH9); test: IP6K2 inhibition assay (ADP Glo kinase assay); format: biochemical; settings: purified human IP6K2, 10 μM IP6, 10 μM ATP, 8-dose, triplicate, mean ± SEM
T2 construct: made in house; host or cells: Sf9 insect cells (baculovirus)
T2 sequence (Q9UHH9 1-426): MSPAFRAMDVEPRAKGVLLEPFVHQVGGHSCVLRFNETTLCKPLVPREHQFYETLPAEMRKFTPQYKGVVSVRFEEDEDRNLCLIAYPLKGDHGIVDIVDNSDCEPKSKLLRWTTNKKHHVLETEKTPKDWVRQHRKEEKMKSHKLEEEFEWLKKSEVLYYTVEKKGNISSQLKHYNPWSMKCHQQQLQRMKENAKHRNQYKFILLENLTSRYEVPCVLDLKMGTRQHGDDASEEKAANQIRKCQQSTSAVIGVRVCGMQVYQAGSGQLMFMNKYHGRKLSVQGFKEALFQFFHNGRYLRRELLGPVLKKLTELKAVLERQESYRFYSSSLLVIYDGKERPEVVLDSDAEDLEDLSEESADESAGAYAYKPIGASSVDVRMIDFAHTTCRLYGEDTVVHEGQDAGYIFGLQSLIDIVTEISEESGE
Protocol: Full-length human IP6K2 cDNA was subcloned into pFASTBAC1 plasmid (Gibco) with an N-terminal FLAG epitope sequence, and baculovirus was generated according to the manufacturer’s instructions. Sf9 insect cells were infected with baculovirus and incubated for 72 h. The cells were resuspended in lysis buffer [20 mM Tris–HCl (pH 7.9), 500 mM NaCl, 4 mM MgCl2, 0.4 mM EDTA, 2 mM DTT, 20% glycerol, 1 mM PMSF, and protease inhibitor cocktail (Roche)] and then disrupted with a Dounce homogeniser (pestle A, 3 series of 10 strokes with 10 min interval).
IP6K2 activity was measured using ADP Glo assay kit (Promega). All kinase assays were performed in low volume 384-well white plates (784075, Greiner-bioone) with a final volume of 5 μL. The reaction buffer contained 2 ng Flag-hIP6K2, 10 μM IP6, and 10 μM ATP in kinase buffer (50 mM Tris, 10 mM MgCl2, 2.5 mM DTT, 0.02% Triton-X-100, pH 6.8)[26]. For dose-dependent inhibition assay, 8 serial 2-fold dilutions of test compounds were prepared in DMSO. The final DMSO concentration was 5% in each reaction. The test compounds (5X, 25% DMSO in 1X kinase buffer) were dispensed to each well, and 2.5 X IP6K2 in kinase buffer were added. After 15 min incubation at room temperature, 2.5 X concentrations of IP6 and ATP were added to the plate. The reaction plate was incubated in a 37 °C incubator for 30 min. Next, the reactions were quenched with 5 μL of ADP Glo reagent for 40 min to deplete the remaining ATP. To convert the remaining ADP to ATP, 10 μl of detection reagent were added and incubated for 30–60 min. The luminescence of the final reactants was measured using the Mithras LB940 plate reader from Berthold. Samples were run in triplicate and the activity (%) was calculated using the following equations; Activity (%) = 100 × (μexperimental–μnegative)/(μpositive–μnegative). Negative control was DSMO-treated reaction. IC50 value was estimated using a logistic regression model with R package.

[4] = system: IP6K; settings: [ATP] = 1 mM; cited from earlier work
[5] = system: IP3K; settings: [ATP] = 10 μM; cited from earlier work

T1 sequence (P33261 whole entry): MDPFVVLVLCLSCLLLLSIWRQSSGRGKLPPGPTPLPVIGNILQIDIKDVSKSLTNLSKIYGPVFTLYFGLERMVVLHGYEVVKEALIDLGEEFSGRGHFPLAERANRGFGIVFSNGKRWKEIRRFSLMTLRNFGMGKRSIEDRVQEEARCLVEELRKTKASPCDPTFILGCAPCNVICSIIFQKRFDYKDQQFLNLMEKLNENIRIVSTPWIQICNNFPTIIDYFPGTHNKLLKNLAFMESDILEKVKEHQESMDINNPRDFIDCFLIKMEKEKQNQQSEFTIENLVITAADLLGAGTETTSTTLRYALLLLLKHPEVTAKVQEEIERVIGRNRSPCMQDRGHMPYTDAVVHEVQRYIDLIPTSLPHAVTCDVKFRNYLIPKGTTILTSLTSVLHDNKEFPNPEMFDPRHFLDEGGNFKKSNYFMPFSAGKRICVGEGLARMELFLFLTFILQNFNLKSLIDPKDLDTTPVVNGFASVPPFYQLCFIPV

O=[N+]([O-])c1ccc(CNc2nc(NCc3cccc(C(F)(F)F)c3)nc3[nH]cnc23)cc1 [TNP, N^6-[(4-nitrophenyl)methyl]-N^2-[[3-(trifluoromethyl)phenyl]methyl]-9H-purine-2,6-diamine]
inhibitory effect on CYP2C19 [1]: no inhibitory effect
CYP3A4 binding mode [2]: Type I
IC50 [3]: 4.5 ± 0.4 µM
IC50 [4]: 0.47 µM
IC50 [5]: 18 µM
